Measurements: patent US10106523B2, “Amide compound” (ASTELLAS PHARMA INC., priority 2014, dated 2018)

Target: T1, rat EP3 receptor (Rattus norvegicus, UniProt P34980)
T1 construct: expressed in transfected cells
T1 sequence (P34980 1-365): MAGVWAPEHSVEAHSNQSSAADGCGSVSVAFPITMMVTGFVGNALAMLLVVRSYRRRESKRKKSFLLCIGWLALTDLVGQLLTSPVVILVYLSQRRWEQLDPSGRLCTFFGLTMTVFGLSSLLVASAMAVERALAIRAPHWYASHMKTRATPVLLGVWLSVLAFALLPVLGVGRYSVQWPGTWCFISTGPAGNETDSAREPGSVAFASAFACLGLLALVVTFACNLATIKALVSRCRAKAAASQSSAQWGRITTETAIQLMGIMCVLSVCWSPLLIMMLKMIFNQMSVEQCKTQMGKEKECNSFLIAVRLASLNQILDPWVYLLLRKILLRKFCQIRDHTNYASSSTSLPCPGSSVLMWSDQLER
Assay: Selectivity test: antagonistic action on rat EP3 receptor (intracellular Ca2+, HEK-293 cells)
Type: cell-based
Settings: PGE2 100 nmol/L, HEK-293 cells stably expressing rat EP3; read-out: Concentration up to which no inhibitory action of 50% or more on the increase in intracellular Ca2+ concentration due to PGE2 through the rat EP3 receptor
Procedure: Test Example 9: Evaluation Test of Receptor Antagonistic Action on Rat EP1/EP2/EP3 Receptor (Selectivity Test)
The antagonistic action of Compound A on other subtypes ([…], EP2, and EP3) of the rat-derived PGE2 receptor was evaluated. For EP1 and EP3, the intracellular Ca^2+ amount was used as an indicator, and for EP2, the intracellular cAMP amount was used as an indicator, so as to investigate the action of the test compound.
Construction of Rat EP1, EP2, or EP3 Receptor Expressing Vector: A rat EP1 receptor gene (GenBank accession No.: D88751.1), a rat EP2 receptor gene (GenBank accession No.: NM_031088.1), or a rat EP3 receptor gene (GenBank accession No.: NM_012704.1) were inserted respectively into an expression vector pcDNA3.1-V5-His-TOPO (Invitrogen Inc.).
Construction of Cell Stably Expressing Rat EP1, EP2, or EP3 Receptor: […]
The intracellular Ca^2+ concentration was measured using FLIPR tetra (Molecular Devices, LLC.) with the fluorescence intensity of the Dye as an indicator. […] By taking the Ca^2+ concentration when PGE2 was added to a final concentration of 100 nmol/L as 100%, and taking the Ca^2+ concentration when PGE2 was not added as 0%, the Ca^2+ concentration in percentage with a treatment with the compound was calculated.

IC50: > 10 µM
SMILES: Cc1nn(Cc2cc3ccccc3cn2)c(C(=O)N[C@@H](C)c2ccc(C(=O)O)cc2)c1Br [Compound A, 4-[(1S)-1-({[4-bromo-1-(isoquinolin-3-ylmethyl)-3-methyl-1H-pyrazol-5-yl]carbonyl}amino)ethyl]benzoic acid]
